ChEMBL document CHEMBL3526144 (Drug Metab Dispos, 2011)

Tests used:
[1] = Inhibition of CYP3A4.2 (unknown origin)-mediated testosterone 6beta-hydroxylation incubated for 10 mins prior to NADPH addition measured after 20 mins by HPLC-UV analysis
CYP3A4.16 and CYP3A4.1 = test: Ratio of Ki for CYP3A4.16 (unknown origin) to Ki for CYP3A4.1 (unknown origin); conditions: human
[2] = Inhibition of CYP3A4.1 (unknown origin)-mediated testosterone 6beta-hydroxylation incubated for 10 mins prior to NADPH addition measured after 20 mins by HPLC-UV analysis
[3] = Inhibition of CYP3A4.18 (unknown origin)-mediated testosterone 6beta-hydroxylation incubated for 10 mins prior to NADPH addition measured after 20 mins by HPLC-UV analysis
CYP3A4.7 and CYP3A4.1 = test: Ratio of Ki for CYP3A4.7 (unknown origin) to Ki for CYP3A4.1 (unknown origin); format: ADME; conditions: human
CYP3A4.2 and CYP3A4.1 = test: Ratio of Ki for CYP3A4.2 (unknown origin) to Ki for CYP3A4.1 (unknown origin); format: ADME; conditions: human
[4] = Inhibition of CYP3A4.7 (unknown origin)-mediated testosterone 6beta-hydroxylation incubated for 10 mins prior to NADPH addition measured after 20 mins by HPLC-UV analysis
[5] = Inhibition of CYP3A4.16 (unknown origin)-mediated testosterone 6beta-hydroxylation incubated for 10 mins prior to NADPH addition measured after 20 mins by HPLC-UV analysis

CCC(C)n1ncn(-c2ccc(N3CCN(c4ccc(OCC5COC(Cn6cncn6)(c6ccc(Cl)cc6Cl)O5)cc4)CC3)cc2)c1=O (stereo not drawn) [ITRACONAZOLE]
Ki [1]: 45 nM | selectivity ratio (CYP3A4.16 and CYP3A4.1): 0.54 | Ki [2]: 76 nM | Ki [3]: 82 nM | selectivity ratio (CYP3A4.7 and CYP3A4.1): 2.4 | selectivity ratio (CYP3A4.2 and CYP3A4.1): 0.59 | Ki [4]: 179 nM | Ki [5]: 41 nM
